Publication PMC3341351, “Down-Regulation of GABAA Receptor via Promiscuity with the Vasoactive Peptide Urotensin II Receptor. Potential Involvement in Astrocyte Plasticity” (PLoS ONE, 2012)

Tests used:
[1] = tested on: α2β1γ1 GABAAR co-expressed with human UT; experiment: Patch-clamp of Iso-evoked current in CHO-UT expressing α2β1γ1 GABAAR; format: cell-based; settings: hUII 10^−13 to 10^−7 M; Iso 10^−4 M, 2 s; −60 mV
Method: (§1) CHO-K1 cell lines were obtained from American Type Culture Collection (Manassas, VA, USA). The human UT stable CHO (CHO-UT) was generously provided by Dr Christophe Dubessy (Inserm, Rouen University, France) et generated by CHO electroporation with 20 µg pIRES-neo2-UT DNA and 500 µg sterile sonicated salmon sperm DNA using the EasyJect One electroporation system (Equibio, Angleur, Belgium), followed by repetitive rounds of limiting dilution of cells in G-418 (400 µg/ml) for selection. Normal or stable CHO was grown in Ham-F12 medium supplemented with 10% FBS, 1% antibiotic-antimicotic solution and 2 mM glutamine, at 37°C in a humidified incubator with an atmosphere of 5% CO2. The stable CHO-UT medium was supplemented with the antibiotic G-418 (40 µg/ml).
(§2) For transfection, cells were trypsinized (0.05%), triturated in HamF-12 containing 10% FBS media, pelleted by centrifugation, resuspended in 100 µl solution V for nucleofection by an Amaxa Nucleofector Device (Köln, Germany; set to program U-016). Experiments were performed on normal CHO or on the stable CHO-UT cells and transiently transfected with combinations of cDNA encoding α2β3γ2, α2β3γ1, α2β1γ2, α2β3γ1, α2β3, β3γ2 (4 µg of cDNA total/transfection) GABAAR subunits. Cells were seeded on 14-mm poly-L-lysine-coated glass bottom insert dishes at 5×10^5 cells in a volume of 0.5 ml/dish. […]

[2] = tested on: GABAAR subunit combinations co-expressed with human UT; experiment: Patch-clamp of GABA current in CHO co-expressing human UT and combinations of GABAAR subunits; format: cell-based
Method: as §1, §2

Substance | Inhibitory effect on Iso-evoked current, α2β1γ1 [1] | Activity on αβ binary complexes [2] | Depression of GABA current, order of subunit combinations [2]
ETPDCFWKYCV (disulfide) [hUII, human urotensin II, synthesized by solid phase methodology] | less effective | – | –
UII: Urotensin II, species not stated at that place (rUII in astrocytes, hUII in CHO and human cells) | – | inactive | markedly depressed the GABA current (β3γ2>α2β3γ2>α2β1γ2)
